Results taken from patent US10647675B2 (priority 2015, dated 2020).
In brackets after ≈: the same amount, converted by molar mass.

Key:
[1] = test system: Trichophyton rubrum KD-1130; assay: Antifungal activity evaluation test: minimum inhibitory concentration (MIC), broth dilution by reference to CLSI M38-A2; assay type: cell-based; conditions: KD1130, read-out: MIC (T. rubrum)
How it was run: (§1)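 MIC read visually as lowest concentration inhibiting growth by at least 80% relative to control after 4 days at 35° C. Trichophyton strains inoculated at 2×10^3 cells/mL final in MOPS-buffered RPMI 1640 (pH 7.0); compounds as 2-fold DMSO series, CLSI M38-A2 basis.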

[2] = test system: Trichophyton mentagrophytes SM-110; assay: as above; assay type: cell-based; conditions: SM110, read-out: MIC (T. menta.)
How it was run: as §1

SMILES	MIC [1] [µg/mL]	MIC [2] [µg/mL]
FC(F)(F)c1ccc(Nc2ncncc2-c2cccc3ccnn23)cc1 [I-362, 5-(pyrazolo[1,5-a]pyridin-7-yl)-N-[4-(trifluoromethyl)phenyl]pyrimidin-4-amine]	≤ 0.1	≤ 0.1
COc1cc(-c2cncnc2Oc2ccc(C(F)F)nc2)c(F)cc1F [I-363, 5-(2,4-difluoro-5-methoxyphenyl)-4-{[6-(difluoromethyl)pyridin-3-yl]oxy}pyrimidine]	≤ 0.1	≤ 0.1
COc1ccccc1-c1cccnc1Oc1ccc(N(C)C)nc1 [I-365]	0.2 to 0.78 (≈ 0.622 to 2.43 µM)	≤ 0.1
COc1cc(F)ccc1-c1cccnc1Oc1ccc(Cl)nc1 [I-366]	≤ 0.1	≤ 0.1
CCN(C)c1ccc(Oc2ncccc2-c2ccc(F)cc2OC)cn1 [I-367, N-ethyl-5-{[3-(4-fluoro-2-methoxyphenyl)pyridin-2-yl]oxy}-N-methylpyridin-2-amine]	≤ 0.1	≤ 0.1
CCCN(C)c1ccc(Oc2ncccc2-c2ccc(F)cc2OC)cn1 [I-368, 5-{[3-(4-fluoro-2-methoxyphenyl)pyridin-2-yl]oxy}-N-methyl-N-propylpyridin-2-amine]	≤ 0.1	≤ 0.1
COc1cc(F)ccc1-c1cccnc1Oc1cnc(N(C)C)c(C)c1 [I-369]	≤ 0.1	≤ 0.1
COc1ccccc1-c1cccnc1Oc1ccc(OC(F)F)nc1 [I-370, 2-{[6-(difluoromethoxy)pyridin-3-yl]oxy}-3-(2-methoxyphenyl)pyridine]	≤ 0.1	≤ 0.1
COc1ccccc1-c1cccnc1Oc1ccc(CNc2ccccc2)nc1 [I-371, N-[(5-{[3-(2-methoxyphenyl)pyridin-2-yl]oxy}pyridin-2-yl)methyl]aniline]	≤ 0.1	≤ 0.1
COc1cccc(-c2cccnc2Oc2ccc(C(F)(F)F)nc2)n1 [I-374, 6-methoxy-2′-{[6-(trifluoromethyl)pyridin-3-yl]oxy}-2,3′-bipyridine]	≤ 0.1	≤ 0.1
FC(F)(F)c1ccc(Oc2ncccc2-c2cccc3cc(Cl)nn23)cn1 [I-375, 2-chloro-7-(2-{[6-(trifluoromethyl)pyridin-3-yl]oxy}pyridin-3-yl)pyrazolo[1,5-a]pyridine]	≤ 0.1	≤ 0.1
Cc1nsc(-c2cccnc2Oc2ccc(C(F)(F)F)nc2)c1Br [I-377, 4-bromo-3-methyl-5-(2-{[6-(trifluoromethyl)pyridin-3-yl]oxy}pyridin-3-yl)isothiazole]	≤ 0.1	≤ 0.1
C=C(C)c1ncc(Oc2ncccc2-c2ccc(F)cc2OC)cn1 [I-378, 5-{[3-(4-fluoro-2-methoxyphenyl)pyridin-2-yl]oxy}-2-(prop-1-en-2-yl)pyrimidine]	≤ 0.1	≤ 0.1
COc1cc(F)ccc1-c1cccnc1Oc1cnc(C2(C)CC2)nc1 [I-379, 5-{[3-(4-fluoro-2-methoxyphenyl)pyridin-2-yl]oxy}-2-(1-methylcyclopropyl)pyrimidine]	≤ 0.1	≤ 0.1
COc1ccccc1-c1cccnc1Oc1cnc(OCc2ccccc2)nc1 [I-380, 2-(benzyloxy)-5-{[3-(2-methoxyphenyl)pyridin-2-yl]oxy}pyrimidine]	≤ 0.1	≤ 0.1
COc1ncccc1-c1cccnc1Oc1cnc(N(C)Cc2ccccc2)nc1 [I-381, N-benzyl-5-{[2′-methoxy-(3,3′-bipyridin)-2-yl]oxy}-N-methylpyrimidin-2-amine]	≤ 0.1	≤ 0.1
CCCCN(C)c1ncc(Oc2ncccc2-c2cnccc2OC)cn1 [I-384]	≤ 0.1	≤ 0.1
CCOC(=O)CN(C)c1ncc(Oc2ncccc2-c2ccc(F)cc2OC)cn1 [I-386, ethyl 2-[(5-{[3-(4-fluoro-2-methoxyphenyl)pyridin-2-yl]oxy}-pyrimidin-2-yl)(methyl)amino]acetate]	≤ 0.1	≤ 0.1
COC(=O)CN(C)c1ncc(Oc2ncccc2-c2ccccc2OC)cn1 [I-387, methyl 2-[(5-{[3-(2-methoxyphenyl)pyridin-2-yl]oxy}pyrimidin-2-yl)(methyl)amino]acetate]	≤ 0.1	≤ 0.1
CCOCC(C)(C)c1ccc(Oc2ncccc2-c2cccnc2OC)cc1 [I-388, 2-[4-(1-ethoxy-2-methylpropan-2-yl)phenoxy]-2′-methoxy-3,3′-bipyridine]	≤ 0.1	≤ 0.1
C#Cc1ccc(Oc2ncccc2-c2cccnc2OC)cc1 [I-390, 2-(4-ethynylphenoxy)-2′-methoxy-3,3′-bipyridine]	≤ 0.1	≤ 0.1
CCc1ccc(Oc2ncccc2-c2cnccc2OC)cc1F [I-392, 2-(4-ethyl-3-fluorophenoxy)-4′-methoxy-3,3′-bipyridine]	≤ 0.1	≤ 0.1
CCc1ccc(Oc2ncccc2-c2cnccc2OC)c(F)c1 [I-394, 2-(4-ethyl-2-fluorophenoxy)-4′-methoxy-3,3′-bipyridine]	≤ 0.1	≤ 0.1
CCOCCc1ccc(Oc2ncccc2-c2cccnc2OC)cc1 [I-396, 2-[4-(2-ethoxyethyl)phenoxy]2′-methoxy-3,3′-bipyridine]	≤ 0.1	≤ 0.1
COc1ncccc1-c1cccnc1Oc1ccc(CCOC(C)=O)cc1 [I-397, 4-{[(2′-methoxy)-(3,3′-bipyridin)-2-yl]oxy}phenethyl acetate]	≤ 0.1	≤ 0.1
COc1ncccc1-c1cccnc1Oc1ccc(CCOC(=O)N(C)C)cc1 [I-398, 4-{[(2′-methoxy-(3,3′-bipyridin)-2-yl]oxy}phenethyl dimethylcarbamate]	≤ 0.1	≤ 0.1
COc1ncccc1-c1cccnc1Oc1ccc(CCn2cccn2)cc1 [I-400, 2-{4-[2-(1H-pyrazol-1-yl)ethyl]phenoxy}-2′-methoxy-3,3′-bipyridine]	≤ 0.1	≤ 0.1
COc1ncccc1-c1cccnc1Oc1ccc(CCn2cc(C)cn2)cc1 [I-401, 2-methoxy-2′-{4-[2-(4-methyl-1H-pyrazol-1-yl)ethyl]phenoxy}-3,3′-bipyridine]	≤ 0.1	≤ 0.1

SMILES	MIC [1] [µg/mL]	MIC [2] [µg/mL]
CCn1cc(CCc2ccc(Oc3ncccc3-c3cccnc3OC)cc2)cn1 [I-404, 2-{4-[2-(1-ethyl-1H-pyrazol-4-yl)ethyl]phenoxy}-2′-methoxy-3,3′-bipyridine]	≤ 0.1	≤ 0.1
C#CCCc1ccc(Oc2ncccc2-c2cccnc2OC)cc1 [I-407, 2-[4-(but-3-yn-1-yl)phenoxy]-2′-methoxy-3,3′-bipyridine]	≤ 0.1	≤ 0.1
COc1ncccc1-c1cccnc1Oc1ccc(CCc2cc(C)no2)cc1 [I-408, 5-(4-{[2′-methoxy-(3,3′-bipyridin)-2-yl]oxy}phenethyl)-3-methylisoxazole]	≤ 0.1	≤ 0.1
COC(=O)CCc1ccc(Oc2ncccc2-c2cccnc2OC)cc1 [I-409]	≤ 0.1	≤ 0.1
COc1ncccc1-c1cccnc1Oc1ccc(CCc2nc(C)no2)cc1 [I-411]	≤ 0.1	≤ 0.1
CCOCCc1ccc(Oc2ncccc2-c2cccc3ccnn23)cc1 [I-412, 7-{2-[4-(2-ethoxyethyl)phenoxy]pyridin-3-yl}pyrazolo[1,5-a]pyridine]	≤ 0.1	≤ 0.1
COCC(F)(F)c1ccc(Oc2ncccc2-c2cccc3ccnn23)cc1 [I-413, 7-{2-[4-(1,1-difluoro-2-methoxyethyl)phenoxy]pyridin-3-yl}pyrazolo[1,5-a]pyridine]	≤ 0.1	≤ 0.1
CCOC(=O)c1ccc(Oc2ncccc2-c2cnccc2Cl)cc1 [I-414]	≤ 0.1	≤ 0.1
CCOC(=O)c1ccc(Oc2ncccc2-c2cnccc2OCC)cc1 [I-415, ethyl 4-{[4′-ethoxy-(3,3′-bipyridin)-2-yl]oxy}benzoate]	≤ 0.1	≤ 0.1
CCOC(=O)c1ccc(Oc2ncccc2-c2cnccc2CC)cc1 [I-416]	≤ 0.1	≤ 0.1
COc1ccncc1-c1cccnc1Oc1ccc(C(=O)OC(C)C)cc1 [I-418]	≤ 0.1	≤ 0.1
CCOC(=O)c1ccc(Oc2ncccc2-c2cnccc2C)cc1 [I-419]	≤ 0.1	≤ 0.1
Cc1noc(-c2ccc(Oc3ncccc3-c3cnccc3C)cc2)n1 [I-421]	≤ 0.1	≤ 0.1
CC(=O)c1ccc(Oc2ncccc2-c2cnccc2C)cc1 [I-422]	0.2 to 0.78 (≈ 0.657 to 2.56 µM)	0.2 to 0.78 (≈ 0.657 to 2.56 µM)
Cc1ncc(-c2ccc(Oc3ncccc3-c3cnccc3C)cc2)o1 [I-423]	≤ 0.1	≤ 0.1
CC(=O)CC(=O)c1ccc(Oc2ncccc2-c2cnccc2C)cc1 [I-424]	≤ 0.1	0.2 to 0.78 (≈ 0.577 to 2.25 µM)
Cc1cc(-c2ccc(Oc3ncccc3-c3cnccc3C)cc2)on1 [I-425]	≤ 0.1	≤ 0.1
Cc1ccncc1-c1cccnc1Oc1ccc(I)cc1 [I-426]	≤ 0.1	≤ 0.1
Cc1cnc(-c2ccc(Oc3ncccc3-c3cnccc3C)cc2)s1 [I-428]	≤ 0.1	≤ 0.1
Cc1ccncc1-c1cccnc1Oc1ccc(-c2ncccn2)cc1 [I-429]	≤ 0.1	≤ 0.1
Cc1ccncc1-c1cccnc1Oc1ccc(-c2ccncc2)cc1 [I-430]	≤ 0.1	≤ 0.1
Cc1ccncc1-c1cccnc1Oc1ccc(-c2ccccn2)cc1 [I-431]	≤ 0.1	≤ 0.1
Cc1cnn(-c2ccc(Oc3ncccc3-c3cnccc3C)cc2)c1 [I-432]	≤ 0.1	≤ 0.1
Cc1ccncc1-c1cccnc1Oc1ccc(-n2cccn2)cc1 [I-433]	≤ 0.1	≤ 0.1
COc1ncccc1-c1cccnc1Oc1ccc(C(F)(F)CO)cc1 [I-434]	1.56 to 6.25 (≈ 4.35 to 17.4 µM)	0.2 to 0.78 (≈ 0.558 to 2.18 µM)
COc1ncccc1-c1cccnc1Sc1ccc(C(F)(F)F)cc1 [I-435]	0.2 to 0.78 (≈ 0.552 to 2.15 µM)	0.2 to 0.78 (≈ 0.552 to 2.15 µM)
COc1ccccc1-c1cccnc1Sc1ccc(C(F)(F)F)cc1 [I-436, 3-(2-methoxyphenyl)-2-{[4-(trifluoromethyl)phenyl]thio}pyridine]	≤ 0.1	≤ 0.1
